This experiment concerns amphetamine-induced symptoms (cage movement behavior after d-amphetamine sulfate). Nature of the experiment: Antagonism of amphetamine stereotypy in rats. The class given is in vivo. To be noted: Rattus norvegicus, sc, Part A. The text has this:
The tranquilizing agents of the present invention are characterized by relief of such schizophrenic manifestations in humans as hallucinations, hostility, suspiciousness, emotional or social withdrawal, anxiety, agitation and tension. A standard procedure of detecting and comparing tranquilizing activity of compounds in this series and for which there is an excellent correlation with human efficacy is the antagonism of amphetamine-induced symptoms in rat tests, as taught by A. Weissman, et al., J. Pharmacol. Exp. Ther., 151, 339 (1966) and by Quinton, et al., Nature, 200, 178, (1963).
Antagonism of Amphetamine Stereotypy in Rats Test Procedures and Results
The effects of the compounds of the present invention on prominent amphetamine-induced symptoms were studied in rats by a rating scale modeled after the one reported by Quinton and Halliwell, and Weissman. Groups of five rats were placed in a covered plastic cage measuring approximately 26 cm.×42 cm.×16 cm. After a brief period of acclimation in the cage, the rats in each group were treated subcutaneously (s.c.) with the test compound. They were then treated 1, 5 and 24 hrs. later with d-amphetamine sulfate, 5 mg./kg. intraperitoneally (i.p.). […] On the basis of dose-response data after amphetamine it was possible to determine the effective dose of the compound necessary to antagonize or block the characteristic amphetamine behavior of cage movement for fifty percent of the rats tested (ED50). The time of rating chosen coincides with the peak action of amphetamine which is 60-80 min. after treatment with this agent.
Employing the above-described procedure, the following 4a,9b-trans compounds were tested for their ability to block the behavior effects of amphetamine, the results being reported as the ED50 in mg./kg. at the indicated times: [drawing 33]

SMILES strings stand for the structures. Read-outs that look alike come from different tables or passages of the source.

On to `COc1ccc(C(O)CCCN2CCC3C(C2)c2cc(F)ccc2N3c2ccc(F)cc2)cc1` (stereo not drawn), for which the ED50 (1 h, s.c. per method b367, 1 Hr., read-out: ED50 (mg./kg.) 1 Hr., antagonism of amphetamine stereotypy) is 0.1 to 0.32 mg/kg; the ED50 (5 h, s.c. per method b367, 5 Hr., read-out: ED50 (mg./kg.) 5 Hr., antagonism of amphetamine stereotypy) is < 0.1 mg/kg; the ED50 (24 h, s.c. per method b367, 24 Hrs., read-out: ED50 (mg./kg.) 24 Hrs., antagonism of amphetamine stereotypy) was < 0.32 mg/kg.

(Values after patent publication US4267331A, “Process for the production of 2-substituted pyrido[4,3-b]-indoles” (Pfizer Inc., priority 1980, dated 1981).)
